# Test results: ChEMBL document CHEMBL1134819, “Design and synthesis of potent and selective inhibitors of integrin VLA-4” (Bioorg Med Chem Lett, 2001)
# Assays:
# [1] = molecular target: T1, Integrin alpha-4/beta-1 (Homo sapiens, UniProt P05556+P13612); experiment: In vitro Very late antigen 4 cell adhesion inhibitory activity measured by binding of fluorescently labeled Ramos cells to immobilized VCAM-1.; format: cell-based
# [2] = molecular target: T1, Integrin alpha-4/beta-1; experiment: Inhibition of fluorescent Ramos cell adhesion to fibronectin by Very late antigen 4 (VLA-4); format: cell-based
# [3] = molecular target: Integrin alpha-5/beta-1 (Homo sapiens, UniProt P05556+P08648); experiment: Inhibition of fluorescent Ramos cell adhesion to fibronectin by Very late antigen 5 (VLA-5); format: functional, cell-based
# [4] = Inhibition of fluorescent Ramos cell adhesion to vitronectin by alpha-V-beta-3-alphaV/beta-5 integrins; format: functional, cell-based, Homo sapiens
# [5] = Inhibition of fluorescent Ramos cell adhesion to ICAM-1 by mouse Mac-1 integrin; format: functional, cell-based
# [6] = molecular target: T2, Integrin alpha-4/beta-7 (Homo sapiens, UniProt P13612+P26010); experiment: (§1) Inhibition of fluorescent Ramos cell adhesion to VCAM-1 by alpha4-beta7 integrin; format: protein-complex assay
# T2 sequence (P13612 whole entry): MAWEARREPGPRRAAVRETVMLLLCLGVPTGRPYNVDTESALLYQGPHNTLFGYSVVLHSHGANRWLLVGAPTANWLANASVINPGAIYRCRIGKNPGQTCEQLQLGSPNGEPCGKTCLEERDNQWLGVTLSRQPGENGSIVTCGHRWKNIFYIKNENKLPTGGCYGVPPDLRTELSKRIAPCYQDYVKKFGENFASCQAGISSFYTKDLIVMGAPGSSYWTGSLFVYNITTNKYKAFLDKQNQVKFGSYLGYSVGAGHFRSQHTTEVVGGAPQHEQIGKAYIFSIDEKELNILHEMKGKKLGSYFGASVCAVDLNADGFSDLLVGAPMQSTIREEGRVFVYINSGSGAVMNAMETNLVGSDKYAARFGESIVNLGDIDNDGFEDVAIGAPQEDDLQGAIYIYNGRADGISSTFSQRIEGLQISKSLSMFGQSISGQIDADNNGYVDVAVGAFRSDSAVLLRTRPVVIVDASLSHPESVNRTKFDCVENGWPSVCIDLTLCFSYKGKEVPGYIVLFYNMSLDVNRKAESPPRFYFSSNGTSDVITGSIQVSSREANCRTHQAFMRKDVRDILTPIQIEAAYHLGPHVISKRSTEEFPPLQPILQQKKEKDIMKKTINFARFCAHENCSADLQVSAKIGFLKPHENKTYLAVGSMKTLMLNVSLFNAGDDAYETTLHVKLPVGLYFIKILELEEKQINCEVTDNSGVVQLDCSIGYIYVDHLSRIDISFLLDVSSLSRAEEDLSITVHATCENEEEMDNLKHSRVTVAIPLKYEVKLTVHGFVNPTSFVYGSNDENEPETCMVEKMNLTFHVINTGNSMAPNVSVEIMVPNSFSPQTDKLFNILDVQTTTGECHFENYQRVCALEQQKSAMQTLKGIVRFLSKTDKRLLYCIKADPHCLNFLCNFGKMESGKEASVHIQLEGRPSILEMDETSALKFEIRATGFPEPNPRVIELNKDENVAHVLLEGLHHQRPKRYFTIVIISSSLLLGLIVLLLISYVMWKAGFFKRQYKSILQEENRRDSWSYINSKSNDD
# T2 sequence (P26010 whole entry): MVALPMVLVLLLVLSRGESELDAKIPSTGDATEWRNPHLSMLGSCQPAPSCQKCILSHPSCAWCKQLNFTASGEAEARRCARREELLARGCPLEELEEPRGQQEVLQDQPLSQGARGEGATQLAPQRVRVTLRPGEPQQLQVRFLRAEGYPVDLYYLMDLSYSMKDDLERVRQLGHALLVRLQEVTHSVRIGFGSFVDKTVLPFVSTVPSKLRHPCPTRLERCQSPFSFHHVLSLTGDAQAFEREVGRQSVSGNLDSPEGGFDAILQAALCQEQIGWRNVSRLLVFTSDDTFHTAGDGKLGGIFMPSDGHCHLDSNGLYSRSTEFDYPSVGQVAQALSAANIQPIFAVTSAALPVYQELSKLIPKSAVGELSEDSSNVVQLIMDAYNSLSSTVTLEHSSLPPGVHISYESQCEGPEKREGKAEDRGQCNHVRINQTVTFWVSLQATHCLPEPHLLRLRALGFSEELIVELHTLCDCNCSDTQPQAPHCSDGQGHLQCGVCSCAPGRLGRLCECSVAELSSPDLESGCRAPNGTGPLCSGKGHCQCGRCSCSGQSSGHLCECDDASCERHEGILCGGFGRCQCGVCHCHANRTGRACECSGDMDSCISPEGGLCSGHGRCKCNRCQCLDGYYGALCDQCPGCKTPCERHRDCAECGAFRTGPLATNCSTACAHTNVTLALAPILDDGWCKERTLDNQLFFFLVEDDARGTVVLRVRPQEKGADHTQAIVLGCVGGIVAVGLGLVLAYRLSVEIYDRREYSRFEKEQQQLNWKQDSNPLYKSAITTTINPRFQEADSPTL
# [7] = molecular target: Integrin alpha-4/beta-1, Mus musculus; experiment: Inhibition of fluorescent Ramos cell adhesion to VCAM-1 by mouse Very late antigen 4 (VLA-4) integrin
# [8] = molecular target: Integrin alpha-4/beta-1, Rattus norvegicus; experiment: Inhibition of fluorescent Ramos cell adhesion to VCAM-1 by rat Very late antigen 4 (VLA-4) integrin
# [9] = molecular target: Integrin alpha-4/beta-1, Mus musculus; experiment: Inhibition of fluorescent Ramos cell adhesion to VCAM-1 by mouse Very late antigen 4 (VLA-4) integrin; remark: listed apart in the source
# [10] = molecular target: T2, Integrin alpha-4/beta-7; experiment: as §1; format: cell-based
# Sequence of Integrin alpha-5/beta-1 (P05556 21-798 limits assumed): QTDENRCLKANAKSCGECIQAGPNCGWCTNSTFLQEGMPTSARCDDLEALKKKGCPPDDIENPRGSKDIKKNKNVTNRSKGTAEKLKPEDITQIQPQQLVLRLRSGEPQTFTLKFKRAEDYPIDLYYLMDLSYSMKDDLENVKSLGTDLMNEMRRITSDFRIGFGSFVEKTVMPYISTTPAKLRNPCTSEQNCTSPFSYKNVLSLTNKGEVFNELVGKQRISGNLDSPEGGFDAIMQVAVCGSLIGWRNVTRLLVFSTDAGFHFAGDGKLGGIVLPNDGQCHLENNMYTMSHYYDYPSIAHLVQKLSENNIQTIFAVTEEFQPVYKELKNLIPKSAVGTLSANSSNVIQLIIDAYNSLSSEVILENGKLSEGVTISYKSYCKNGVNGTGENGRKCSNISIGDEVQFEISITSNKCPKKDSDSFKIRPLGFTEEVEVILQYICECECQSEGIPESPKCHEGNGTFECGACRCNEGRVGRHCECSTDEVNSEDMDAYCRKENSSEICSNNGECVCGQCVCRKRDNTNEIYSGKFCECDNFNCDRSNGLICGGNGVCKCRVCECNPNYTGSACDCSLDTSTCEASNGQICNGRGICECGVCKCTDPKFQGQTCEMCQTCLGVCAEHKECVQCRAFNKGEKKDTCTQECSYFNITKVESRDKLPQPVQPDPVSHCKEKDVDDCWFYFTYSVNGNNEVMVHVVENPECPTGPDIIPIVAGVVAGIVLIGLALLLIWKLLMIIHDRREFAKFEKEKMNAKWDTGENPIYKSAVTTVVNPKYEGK
# Sequence of Integrin alpha-5/beta-1 (P08648 42-894 limits assumed): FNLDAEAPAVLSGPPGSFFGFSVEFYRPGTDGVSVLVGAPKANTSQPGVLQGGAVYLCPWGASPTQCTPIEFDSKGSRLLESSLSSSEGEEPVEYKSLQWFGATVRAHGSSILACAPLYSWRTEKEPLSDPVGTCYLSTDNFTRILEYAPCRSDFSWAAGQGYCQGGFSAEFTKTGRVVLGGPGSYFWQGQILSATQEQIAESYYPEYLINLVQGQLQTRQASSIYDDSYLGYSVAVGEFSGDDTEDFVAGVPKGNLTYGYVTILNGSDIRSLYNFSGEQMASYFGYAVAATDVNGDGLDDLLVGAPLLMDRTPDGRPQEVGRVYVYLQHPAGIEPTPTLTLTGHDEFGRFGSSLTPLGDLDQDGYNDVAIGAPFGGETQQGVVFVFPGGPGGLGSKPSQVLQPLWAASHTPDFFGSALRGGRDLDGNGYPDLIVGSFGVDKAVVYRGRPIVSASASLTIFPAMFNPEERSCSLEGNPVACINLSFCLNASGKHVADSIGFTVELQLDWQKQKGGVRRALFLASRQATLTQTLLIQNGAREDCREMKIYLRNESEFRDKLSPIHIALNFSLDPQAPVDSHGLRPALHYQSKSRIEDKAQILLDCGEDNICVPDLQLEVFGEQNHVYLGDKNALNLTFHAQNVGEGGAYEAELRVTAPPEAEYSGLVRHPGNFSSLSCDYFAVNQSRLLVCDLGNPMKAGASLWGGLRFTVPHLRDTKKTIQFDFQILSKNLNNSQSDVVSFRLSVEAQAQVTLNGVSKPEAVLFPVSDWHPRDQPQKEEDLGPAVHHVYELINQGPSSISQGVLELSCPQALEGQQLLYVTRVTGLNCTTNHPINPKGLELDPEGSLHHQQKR
# Sequence of Integrin alpha-5/beta-1 (P08648 895-1049 limits assumed): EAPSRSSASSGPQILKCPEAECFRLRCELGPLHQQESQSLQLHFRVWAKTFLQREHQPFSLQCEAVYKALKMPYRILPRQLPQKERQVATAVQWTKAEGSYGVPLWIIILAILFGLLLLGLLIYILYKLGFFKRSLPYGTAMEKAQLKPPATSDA
# T1 sequence (P05556 whole entry, one chain of several): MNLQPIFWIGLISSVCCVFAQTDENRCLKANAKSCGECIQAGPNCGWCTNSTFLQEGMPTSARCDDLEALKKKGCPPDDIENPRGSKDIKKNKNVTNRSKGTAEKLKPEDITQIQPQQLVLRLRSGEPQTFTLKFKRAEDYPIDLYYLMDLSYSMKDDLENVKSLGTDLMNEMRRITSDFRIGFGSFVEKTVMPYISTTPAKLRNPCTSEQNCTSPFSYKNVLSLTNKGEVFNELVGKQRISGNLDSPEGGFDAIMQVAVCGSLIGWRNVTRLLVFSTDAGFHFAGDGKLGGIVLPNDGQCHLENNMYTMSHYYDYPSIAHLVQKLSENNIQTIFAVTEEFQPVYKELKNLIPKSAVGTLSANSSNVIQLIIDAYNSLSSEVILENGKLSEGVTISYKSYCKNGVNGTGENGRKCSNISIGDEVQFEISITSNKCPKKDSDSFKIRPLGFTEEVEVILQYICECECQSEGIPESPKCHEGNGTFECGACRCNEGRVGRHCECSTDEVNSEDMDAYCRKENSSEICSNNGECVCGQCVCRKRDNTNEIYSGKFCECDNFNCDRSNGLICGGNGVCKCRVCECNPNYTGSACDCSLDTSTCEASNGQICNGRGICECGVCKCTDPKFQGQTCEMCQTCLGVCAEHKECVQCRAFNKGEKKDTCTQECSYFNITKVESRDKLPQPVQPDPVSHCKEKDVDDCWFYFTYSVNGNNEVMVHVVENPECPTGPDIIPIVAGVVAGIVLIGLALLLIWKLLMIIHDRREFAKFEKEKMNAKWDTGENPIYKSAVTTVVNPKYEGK
smiles,measurement,setting,value
Cc1ccccc1NC(=O)Nc1ccc(CC(=O)N[C@H](CC(=O)N(CC(=O)O)Cc2ccccc2)CC(C)C)cc1,IC50,[1],247000 nM
C/C=C/[C@H](CC(=O)O)NC(=O)CN(CCC(C)C)C(=O)Cc1ccc(NC(=O)Nc2ccccc2C)cc1,IC50,[1],45 nM
Cc1ccccc1NC(=O)Nc1ccc(CC(=O)NN(CC(C)C)C(=O)NC(CC(=O)O)c2ccccc2)cc1 (centres undefined),IC50,[1],2900 nM
C=CC[C@H](CC(=O)O)NC(=O)[C@H](CC(C)C)NC(=O)Cc1ccc(NC(=O)Nc2ccccc2C)cc1,IC50,[1],16.5 nM
COCCCN(CC(=O)N[C@@H](CC(=O)O)c1ccc(OC)c(OC)c1)C(=O)Cc1ccc(NC(=O)Nc2ccccc2C)cc1,IC50,[2],13.4 nM
same,IC50,[3],> 500 µM
same,IC50,[4],> 100 µM
same,IC50,[5],> 500 µM
same,IC50,[6],> 100 µM
same,IC50,[1],7.1 nM
same,IC50,[7],27.3 nM
same,IC50,[8],21.6 nM
COCCCN(CC(=O)N[C@@H](CC(=O)O)c1ccccc1)C(=O)Cc1ccc(NC(=O)Nc2ccccc2C)cc1,IC50,[2],14.4 nM
same,IC50,[3],> 500 µM
same,IC50,[4],> 100 µM
same,IC50,[5],> 500 µM
same,IC50,[6],> 100 µM
same,IC50,[1],11.7 nM
same,IC50,[7],21.7 nM
same,IC50,[8],24.5 nM
Cc1ccccc1NC(=O)Nc1ccc(CC(=O)N[C@H](CC(=O)N[C@@H](C(=O)O)c2ccccc2)CC(C)C)cc1,IC50,[1],6400 nM
C/C=C/[C@H](CC(=O)O)NC(=O)CN(CCCOC)C(=O)Cc1ccc(NC(=O)Nc2ccccc2C)cc1,IC50,[9],7.7 nM
same,IC50,[2],7.9 nM
same,IC50,[3],> 500 µM
same,IC50,[4],59 µM
same,IC50,[5],> 500 µM
same,IC50,[6],> 100 µM
same,IC50,[1],15.4 nM
same,IC50,[8],20.5 nM
Cc1ccccc1NC(=O)Nc1ccc(CC(=O)N[C@@H](CC(C)C)C(=O)N[C@@H](CC(=O)O)c2ccc3c(c2)OCO3)cc1,IC50,[1],3 nM
Cc1ccccc1NC(=O)Nc1ccc(CC(=O)N(CCC(C)C)CC(=O)N(CCC(=O)O)CCc2ccccc2)cc1,IC50,[1],98 nM
Cc1ccccc1NC(=O)Nc1ccc(CC(=O)N[C@H](CC(C)C)C(=O)N(CCC(=O)O)CCc2ccccc2)cc1,IC50,[1],37000 nM
COCCCCN(CC(=O)N[C@@H](CC(=O)O)c1ccc(OC)c(OC)c1)C(=O)Cc1ccc(NC(=O)Nc2ccccc2C)cc1,IC50,[1],1.3 nM
C=CCN(CC(=O)O)NC(=O)[C@@H](CC(C)C)NC(=O)Cc1ccc(NC(=O)Nc2ccccc2C)cc1,IC50,[1],11000 nM
C=CCC(CC(=O)O)NC(=O)N(CC(C)C)NC(=O)Cc1ccc(NC(=O)Nc2ccccc2C)cc1 (centres undefined),IC50,[1],5900 nM
C/C=C/[C@@H](CC(=O)O)NC(=O)C[C@@H](CC(C)C)NC(=O)Cc1ccc(NC(=O)Nc2ccccc2C)cc1,IC50,[1],103000 nM
COCCCN(CC(=O)N[C@@H](CC(=O)O)c1ccc(OC)cc1)C(=O)Cc1ccc(NC(=O)Nc2ccccc2C)cc1,IC50,[10],6.14 µM
same,IC50,[2],36 nM
same,IC50,[3],> 500 µM
same,IC50,[4],> 100 µM
same,IC50,[5],> 500 µM
same,IC50,[1],4.7 nM
same,IC50,[7],51.9 nM
same,IC50,[8],27.2 nM
CCOC(=O)C[C@H](NC(=O)CN(CCCOC)C(=O)Cc1ccc(NC(=O)Nc2ccccc2C)cc1)c1ccc(OC)cc1,IC50,[1],75000 nM
Cc1ccccc1NC(=O)Nc1ccc(CC(=O)N(CCC(C)C)CC(=O)N[C@@H](CC(=O)O)c2ccccc2)cc1,IC50,[1],29 nM
COc1ccc([C@H](CC(=O)O)NC(=O)CN(CCC(C)C)C(=O)Cc2ccc(NC(=O)Nc3ccccc3C)cc2)cc1OC,IC50,[1],20 nM
Cc1ccccc1NC(=O)Nc1ccc(CC(=O)N[C@H](CC(=O)N[C@@H](CC(=O)O)c2ccccc2)CC(C)C)cc1,IC50,[1],7300 nM
Cc1ccccc1NC(=O)Nc1ccc(CC(=O)N[C@@H](CC(=O)N[C@@H](CC(=O)O)c2ccccc2)CC(C)C)cc1,IC50,[1],262000 nM
